These results are taken from patent US11072634B2, “Inhibitors of transglutaminases” (Zedira GmbH, priority 2016, dated 2021).

The term IC50 denotes the concentration that gives 50% inhibition.

Where a SMILES comes first, the peptide text is derived from it. [ ]: non-standard residue; d: D form. The star is where a group is joined. Nle(5,6-dioxo,6-NHMe) = CNC(=O)C(=O)CC[C@H](N)C(=O)O; Isopropoxycarbonyl = CC(C)OC(=O)*; Hyp = O=C(O)[C@@H]1C[C@@H](O)CN1; Aib = CC(C)(N)C(=O)O

This test has as its target T1, recombinant human tissue transglutaminase (rhTG2) (Homo sapiens, UniProt P21980).
T1 construct: purchased Zedira 1022 (so in the source); T022)
T1 sequence (P21980 1-687): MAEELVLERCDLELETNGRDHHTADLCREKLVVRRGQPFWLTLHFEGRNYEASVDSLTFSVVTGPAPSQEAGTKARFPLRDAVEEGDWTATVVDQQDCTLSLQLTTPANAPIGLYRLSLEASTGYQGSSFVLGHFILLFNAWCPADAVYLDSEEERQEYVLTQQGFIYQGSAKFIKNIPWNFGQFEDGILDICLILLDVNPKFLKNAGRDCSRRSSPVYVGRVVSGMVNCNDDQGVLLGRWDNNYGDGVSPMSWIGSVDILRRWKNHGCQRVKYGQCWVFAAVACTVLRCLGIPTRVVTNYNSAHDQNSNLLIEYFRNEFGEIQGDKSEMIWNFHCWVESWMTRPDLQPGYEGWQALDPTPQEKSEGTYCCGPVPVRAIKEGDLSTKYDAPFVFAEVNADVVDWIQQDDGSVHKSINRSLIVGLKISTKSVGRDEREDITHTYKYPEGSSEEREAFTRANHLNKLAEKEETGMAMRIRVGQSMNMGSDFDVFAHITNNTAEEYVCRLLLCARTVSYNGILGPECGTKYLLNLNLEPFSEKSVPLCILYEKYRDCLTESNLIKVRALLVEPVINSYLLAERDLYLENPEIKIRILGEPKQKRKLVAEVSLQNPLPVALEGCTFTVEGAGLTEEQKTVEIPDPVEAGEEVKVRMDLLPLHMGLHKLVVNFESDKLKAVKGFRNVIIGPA
The test is described as follows: Inhibition of rec. human tissue transglutaminase (fluorescence, Abz-APE(CAD-DNP)QEA-OH). The test is classed as biochemical. The conditions noted are these: Table 2, TG2 inhibitors. The protocol:
Method for Inhibition Studies of Rec. Human Tissue Transglutaminase (rhTG2)
250 μg lyophilized His-tagged recombinant human tissue transglutaminase (His6-rhTG2, Zedira product 1022) is reconstituted in H2O (volume depends on original volume before lyophilization) resulting in a buffer containing 10 mM Tris-HCl, 150 mM NaCl, 1 mM EDTA, 5 mM DTT, 189 mg/ml maltodextrin, pH=8.1. The rhTG2 stock solution is diluted in buffer (50 mM Tris-HCl, 7.5 mM CaCl2, 150 mM NaCl, pH=7.4) to give a working solution of 100 U/ml (based on the amine-incorporation activity measured using T036, described below).
A 10 mM inhibitor stock solution is prepared in DMSO, and from this stock solution a serial 1:2-fold dilution series is prepared, also in DMSO. Each of these initial dilutions is subsequently diluted 1:50-fold with buffer (50 mM Tris-HCl, 7.5 mM CaCl2, 150 mM NaCl, pH=7.4) to yield the final working dilutions containing 2% (v/v) DMSO. 15 μl of inhibitor working dilution are added per well of a 96 well microtiter plate. As control, 15 μl of a 2% (v/v) DMSO solution prepared using the buffer mentioned above are added per well.
600 μl of His6-rhTG2 working solution are added to 11.4 ml assay buffer (50 mM Iris-HCl, 7.5 mM CaCl2, 150 mM NaCl, 5 mM DTI, 13.4 mM glycine methylester, 50 μM Abz-APE(CAD-DNP)QEA-OH, (Zedira product A102; patent No.: EP 1781807B1), pH=7.4). From this master-mix solution, 285 μl are added per well containing the inhibitor. Increase in fluorescence is measured using λex=313 nm and λem=418 nm at 37° C. for 20 min. A slope of the increase in fluorescence between 10 and 20 min is calculated for determination of the IC50 value (inhibitor concentration at which 50% of the initial TG2 activity is blocked).
Analysis of enzymatic activity is performed by calculation of the slope of an increase in fluorescence intensity. IC50 values are calculated by plotting the enzymatic activity (as percentage from control containing 2% DMSO instead of inhibitor) against the inhibitor concentration. IC50 is defined as the inhibitor concentration blocking 50%) of initial enzyme activity.
Regarding `CCC(CC)CNC(=O)Cn1cccc(NC(=O)[C@H](CCC(=O)C(=O)C2CC2)NC(=O)c2cncn2C)c1=O` [Compound E75, (S)—N-(6-cyclopropyl-1-(1-(2-(2-ethylbutylamino)-2-oxoethyl)-2-oxo-1,2-dihydropyridin-3-ylamino)-1,5,6-trioxohexan-2-yl)-1-methyl-1H-imidazole-5-carboxamide], the IC50 was 135 nM.
For the compound `COC(=O)[C@H](CC(C)C)NC(=O)[C@@H]1CCCN1C(=O)[C@@H](NC(=O)[C@H](CCC(=O)C(=O)NC1CC1)NC(=O)c1ccccc1)C(C)C` [Compound E24, (S)-methyl 2-((S)-1-((S)-2-((S)-2-benzamido-6-(cyclopropylamino)-5,6-dioxonexan-amido)-3-methylbutanoyl)pyrrolidine-2-carboxamido)-4-methylpentanoate], the IC50 was 550 nM.
For `CCC(CC)CNC(=O)Cn1cccc(NC(=O)[C@H](CCC(=O)C(=O)NC)NC(=O)CCC(=O)O)c1=O` [Compound E59, (S)-4-(1-(1-(2-(2-ethylbutylamino)-2-oxoethyl)-2-oxo-1,2-dihydropyridin-3-ylamino)-6-(methylamino)-1,5,6-trioxohexan-2-ylamino)-4-oxobutanoic acid] the value was 625 nM; for `CCNC(=O)C(=O)CC[C@H](NC(=O)c1cncn1C)C(=O)Nc1cccn(CC(=O)NCC(CC)CC)c1=O` [Compound E17, (S)—N1-ethyl-N6-(1-(2-(2-ethylbutylamino)-2-oxoethyl)-2-oxo-1,2-dihydropyridin-3-yl)-5-(1-methyl-1H-imidazole-5-carboxamido)-2-oxonexanediamide], 100 nM.
Next, `CCC(CC)CNC(=O)Cn1cccc(NC(=O)[C@H](CCC(=O)C(=O)CC(C)C)NC(=O)c2cncn2C)c1=O` [Compound E80, (S)—N-(1-(1-(2-(2-ethylbutylamino)-2-oxoethyl)-2-oxo-1,2-dihydropyridin-3-ylamino)-8-methyl-1,5,6-trioxononan-2-yl)-1-methyl-1H-imidazole-5-carboxamide]: 135 nM.
Next, `CCC(CC)CNC(=O)Cn1cccc(NC(=O)[C@H](CCC(=O)C(=O)NC2CC2)NC(=O)c2cncn2C)c1=O` [Compound E19, (S)—N1-cyclopropyl-N6-(1-(2-(2-ethylbutylamino)-2-oxoethyl)-2-oxo-1,2-dihydropyridin-3-yl)-5-(1-methyl-1H-imidazole-5-carboxamido)-2-oxonexanediamide]: 350 nM; `CCC(CC)CNC(=O)Cn1cccc(NC(=O)[C@H](CCC(=O)C(=O)NC)NC(=O)Nc2ccccc2)c1=O` [Compound E69, (S)—N1-(1-(2-(2-ethylbutylamino)-2-oxoethyl)-2-oxo-1,2-dihydropyridin-3-yl)-N6-methyl-5-oxo-2-(3-phenylureido)hexanediamide]: 275 nM.
As for `CCC(CC)CNC(=O)Cn1cccc(NC(=O)[C@H](CCC(=O)C(=O)c2cn(C)cn2)NC(=O)c2cncn2C)c1=O` [Compound E81, (S)—N-(1-(1-(2-(2-ethylbutylamino)-2-oxoethyl)-2-oxo-1,2-dihydropyridin-3-ylamino)-6-(1-methyl-1H-imidazol-4-yl)-1,5,6-trioxohexan-2-yl)-1-methyl-1H-imidazole-5-carboxamide], the concentration for half-maximal inhibition (IC50) is 740 nM.
Regarding `CCC(CC)CNC(=O)Cn1cccc(NC(=O)[C@H](CCC(=O)C(=O)NCc2ccccc2)NC(=O)c2cncn2C)c1=O` [Compound E20, (S)—N1-benzyl-N6-(1-(2-(2-ethylbutylamino)-2-oxoethyl)-2-oxo-1,2-dihydropyridin-3-yl)-5-(1-methyl-1H-imidazole-5-carboxamido)-2-oxonexanediamide], the 50% inhibitory concentration (IC50) is 600 nM.
Next, `CCC(CC)CNC(=O)Cn1cccc(NC(=O)[C@H](CCC(=O)C(N)=O)NC(=O)c2cnccn2)c1=O` [Compound E11, (S)—N1-(1-(2-(2-ethylbutylamino)-2-oxoethyl)-2-oxo-1,2-dihydropyridin-3-yl)-5-oxo-2-(pyrazine-2-carboxamido)hexanediamide]: 450 nM; `CCC(CC)CNC(=O)Cn1cccc(NC(=O)[C@H](CCC(=O)C(=O)NC)NS(=O)(=O)c2nccn2C)c1=O` [Compound E68, (S)—N1-(1-(2-(2-ethylbutylamino)-2-oxoethyl)-2-oxo-1,2-dihydropyridin-3-yl)-N6-methyl-2-(1-methyl-1H-imidazole-2-sulfonamido)-5-oxohexanediamide]: 150 nM.
In the case of `CCC(CC)CNC(=O)Cn1cccc(NC(=O)[C@H](CCC(=O)C(=O)NCS(=O)(=O)c2ccc(C)cc2)NC(=O)c2cncn2C)c1=O` [Compound E41, (S)—N1-(1-(2-(2-ethylbutylamino)-2-oxoethyl)-2-oxo-1,2-dihydropyridin-3-yl)-2-(1-methyl-1H-imidazole-5-carboxamido)-5-oxo-N6-(tosylmethyl)hexanediamide], the IC50 came to 1450 nM.
Next, `CCC(CC)CNC(=O)Cn1cccc(NC(=O)[C@H](CCC(=O)C(=O)NC)NC(=O)OC(C)(C)C)c1=O` [Compound E58, (S)-tert-butyl 1-(1-(2-(2-ethylbutylamino)-2-oxoethyl)-2-oxo-1,2-dihydropyridin-3-ylamino)-6-(methylamino)-1,5,6-trioxohexan-2-ylcarbamate]: 280 nM; `CNC(=O)C(=O)CC[C@H](NC(=O)OC(C)C)C(=O)N[C@@H](CCCNC(=N)N)C(=O)NC(C)(C)C(=O)N1C[C@H](O)C[C@H]1C(N)=O` [Compound E84, isopropyl (S)-1-((S)-1-(1-((2S,4R)-2-carbamoyl-4-hydroxypyrrolidin-1-yl)-2-methyl-1-oxopropan-2-ylamino)-5-guanidino-1-oxopentan-2-ylamino)-6-(methylamino)-1,5,6-trioxohexan-2-ylcarbamate] (Isopropoxycarbonyl-[Nle(5,6-dioxo,6-NHMe)]R[Aib][Hyp]-NH2): 960 nM; `CCC(CC)CNC(=O)Cn1cc(Br)cc(NC(=O)[C@H](CCC(=O)C(=O)NC)NC(=O)c2cncn2C)c1=O` [Compound E46, (S)—N1-(5-bromo-1-(2-(2-ethylbutylamino)-2-oxoethyl)-2-oxo-1,2-dihydropyridin-3-yl)-N6-methyl-2-(1-methyl-1H-imidazole-5-carboxamido)-5-oxohexanediamide]: 95 nM.
For `CCC(CC)CNC(=O)Cn1cccc(NC(=O)[C@H](CCC(=O)C(=O)NC)NC(=O)c2cncnc2)c1=O` [Compound E64, (S)—N1-(1-(2-(2-ethylbutylamino)-2-oxoethyl)-2-oxo-1,2-dihydropyridin-3-yl)-N6-methyl-5-oxo-2-(pyrimidine-5-carboxamido)hexanediamide], the IC50 was 95 nM.
Next, `CCC(CC)CNC(=O)Cn1cccc(NC(=O)[C@H](CCC(=O)C(=O)NC)NC(=O)c2cnc3ccccc3n2)c1=O` [Compound E65, (S)—N1-(1-(2-(2-ethylbutylamino)-2-oxoethyl)-2-oxo-1,2-dihydropyridin-3-yl)-N6-methyl-5-oxo-2-(quinoxaline-2-carboxamido)hexanediamide]: 65 nM; `CCN(CC)C(=O)Cn1cccc(NC(=O)[C@H](CCC(=O)C(=O)NC)NC(=O)c2cncn2C)c1=O` [Compound E50, (S)—N1-(1-(2-(diethylamino)-2-oxoethyl)-2-oxo-1,2-dihydropyridin-3-yl)-N6-methyl-2-(1-methyl-1H-imidazole-5-carboxamido)-5-oxohexanediamide]: 300 nM.
